What is called pIC50 is −log10 of the IC50, conventionally taken in molar units. Low values mean a large IC50, high ones a small IC50. By melting point is commonly meant the temperature, or range, at which the solid turns liquid.

pIC50: −log10 of the molar value. Counter-ions that a name gives are not always drawn.

Data set [1] has as its target T1, Na^+/H^+ exchange transport system (Rattus norvegicus, UniProt P26431).
T1 construct: a pH change in isolated ventricular myocytes (rat) under an acidic load; endogenous in cells; host or cells: isolated rat ventricular myocytes
Kind of data set: Inhibitory effect on the Na^+/H^+ exchange transport system (in vitro), pH change in isolated ventricular myocytes under an acidic load. The data set is classed as cell-based. The protocol:
Inhibitory Effect on the Na^+/H^+ Exchange Transport System (in vitro)
A test was carried out according to the method of Iemori et al. (J. Hypertension, 8, 153(1990)). In detail, inhibitory effect on the Na^+/H^+ exchange transport system was evaluated by using as an indication a pH change in isolated ventricular myocytes (rat) under an acidic load.

T1 sequence (P26431 whole entry): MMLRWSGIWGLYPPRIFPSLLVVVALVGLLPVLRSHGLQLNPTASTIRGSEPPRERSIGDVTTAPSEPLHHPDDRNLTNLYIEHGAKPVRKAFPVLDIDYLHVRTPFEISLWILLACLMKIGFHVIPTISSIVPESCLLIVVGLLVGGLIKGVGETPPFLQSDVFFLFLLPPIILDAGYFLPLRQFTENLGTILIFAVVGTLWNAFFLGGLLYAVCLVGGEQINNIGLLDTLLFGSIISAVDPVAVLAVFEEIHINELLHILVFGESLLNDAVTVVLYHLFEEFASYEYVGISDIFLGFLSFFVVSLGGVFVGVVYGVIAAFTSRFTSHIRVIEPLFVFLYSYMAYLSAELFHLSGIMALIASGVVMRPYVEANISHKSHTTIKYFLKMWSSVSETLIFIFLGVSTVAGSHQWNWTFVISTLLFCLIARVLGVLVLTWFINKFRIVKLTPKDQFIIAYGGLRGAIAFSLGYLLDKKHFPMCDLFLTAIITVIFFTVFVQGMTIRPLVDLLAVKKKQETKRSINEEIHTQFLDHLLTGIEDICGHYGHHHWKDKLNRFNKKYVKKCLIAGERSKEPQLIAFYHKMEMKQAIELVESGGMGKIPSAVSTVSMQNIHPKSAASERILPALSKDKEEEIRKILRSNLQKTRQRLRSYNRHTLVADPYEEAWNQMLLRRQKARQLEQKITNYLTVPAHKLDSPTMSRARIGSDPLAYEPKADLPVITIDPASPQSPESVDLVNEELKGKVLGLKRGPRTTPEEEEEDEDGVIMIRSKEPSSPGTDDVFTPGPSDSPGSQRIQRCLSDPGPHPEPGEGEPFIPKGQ

In data set [1], `Cc1c(OS(=O)(=O)O)ccc2c1cc(C(=O)NC(=N)N)n2C` [Example 1, 2-[[[amino(imino)methyl]amino]-carbonyl]-1,4-dimethyl-1H-indol-5-yl Hydrogen Sulfate] had a negative-log IC50 (pIC50) of 5.00.
Compound `Cc1cc(OS(=O)(=O)O)cc2c1cc(C(=O)NC(=N)N)n2C` [Example 2, 2-[[[Amino(imino)methyl]amino]carbonyl]-1,4-dimethyl-1H-indol-6-yl Hydrogen Sulfate] showed a pIC50 in data set [1] of 7.15.
`Cn1c(C(=O)NC(=N)N)cc2c(C(F)(F)F)cc(CS(=O)(=O)O)cc21` [Example 37, [2-[[[amino(imino)methyl]amino]-carbonyl]-1-methyl-4-(trifluoromethyl)-1H-indol-6-yl]-methanesulfonic Acid] yielded a melting point of at least 300 °C.
As for `Cn1c(C(=O)NC(=N)N)cc2c(C(F)(F)F)ccc(CCS(=O)(=O)O)c21` [Example 40, 2-[2-[[[Amino(imino)methyl]amino]carbonyl]-1-methyl-4-(trifluoromethyl)-1H-indol-7-yl]ethanesulfonic Acid], the melting point was at least 300 °C.
On to `Cc1cc(OCP(=O)(O)O)cc2c1cc(C(=O)NC(=N)N)n2C` [Example 49, [[2-[[[Amino(imino)methyl]amino]carbonyl]-1,4-dimethyl-1H-indol-6-yl]oxy]methylphosphonic Acid], for which the melting point is at least 300 °C.
As to `Cc1ccc(OCP(=O)(O)O)c2c1cc(C(=O)NC(=N)N)n2C` [Example 50, [[2-[[[Amino(imino)methyl]amino]carbonyl]-1,4-dimethyl-1H-indol-7-yl]oxy]methylphosphonic Acid], the melting point is 270 °C (dec.).
On the same count and under the same terms, for `Cn1c(C(=O)NC(=N)N)cc2c(Cl)cc(OCP(=O)(O)O)cc21` [Example 47, [[2-[[[Amino(imino)methyl]amino]carbonyl]-4-chloro-1-methyl-1H-indol-6-yl]oxy]methylphosphonic Acid] the value was 263 °C (dec.).
On the same count and under the same terms, for `Cn1c(C(=O)NC(=N)N)cc2c(Cl)ccc(OS(=O)(=O)O)c21` (as salt: sulfate) [Example 14, 2-[[[Amino(imino)methyl]amino]carbonyl]-4-chloro-1-methyl-1H-indol-7-yl Hydrogen Sulfate] the value was 338 °C (dec.); for `Cn1c(C(=O)NC(=N)N)cc2c(C(F)(F)F)ccc(OCCCS(=O)(=O)O)c21` [Example 33, 3-[[2-[[[Amino(imino)methyl]amino]carbonyl]-1-methyl-4-(trifluoromethyl)-1H-indol-7-yl]oxy]-1-propanesulfonic Acid], ≥ 272 °C (dec.).
On the same count and under the same terms, to `Cc1cccc2c1cc(C(=O)NC(=N)N)n2CCCS(=O)(=O)O` [Example 29, 3-[2-[[[Amino(imino)methyl]amino]carbonyl]-4-methyl-1H-indol-1-yl]-1-propanesulfonic Acid] belongs 298 °C (dec.).
For `CS(=O)(=O)O.Cn1c(C(=O)NC(=N)N)cc2c(C(F)(F)F)cc(P(=O)(O)O)cc21`, the melting point is 286 °C (dec.).
As for `Cn1c(C(=O)NC(=N)N)cc2c(C(F)(F)F)cc(OS(=O)(=O)O)cc21` (as salt: sulfate) [Example 12, 2-[[[Amino(imino)methyl]amino]carbonyl]-1-methyl-4-(trifluoromethyl)-1H-indol-6-yl Hydrogen Sulfate], the melting point is 300 °C (dec.).
Regarding `Cc1cc(OCCCS(=O)(=O)O)cc2c1cc(C(=O)NC(=N)N)n2C` [Example 35, 3-[[2-[[[Amino(imino)methyl]amino]carbonyl]-1,4-dimethyl-1H-indol-6-yl]oxy]-1-propanesulfonic Acid], the melting point was 290 °C (dec.).
The compound `Cc1ccc(OS(=O)(=O)O)c2c1cc(C(=O)NC(=N)N)n2C` [Example 4, 2-[[[amino(imino)methyl]amino]-carbonyl]-1,4-dimethyl-1H-indol-7-yl Hydrogen Sulfate] gave a pIC50 in data set [1] of 6.70.
Turning to `Cn1c(C(=O)NC(=N)N)cc2c(C(F)(F)F)cc(CP(=O)(O)O)cc21` [Example 15, [2-[[[amino(imino)methyl]amino]-carbonyl]-1-methyl-4-(trifluoromethyl)-1H-indol-6-yl]-methylphosphonic Acid], the melting point was 231 to 266 °C (dec.).
The same measure, in the same setting: to `Cn1c(C(=O)NC(=N)N)cc2cccc(OS(=O)(=O)O)c21` (as salt: sulfate) [Example 3, 2-[[[Amino(imino)methyl]amino]carbonyl]-1-methyl-1H-indol-7-yl Hydrogen Sulfate] belongs 279 to 280 °C (dec.); to `Cn1c(C(=O)NC(=N)N)cc2c(Cl)ccc(CCP(=O)(O)O)c21` [Example 53, 2-[2-[[[Amino(imino)methyl]amino]carbonyl]-4-chloro-1-methyl-1H-indol-7-yl]ethylphosphonic Acid], 256 °C (dec.).
`N=C(N)NC(=O)c1cc2c(C(F)(F)F)cccc2n1CCCS(=O)(=O)O` [Example 28, 3-[2-[[[Amino(imino)methyl]amino]carbonyl]-4-(trifluoromethyl)-1H-indol-1-yl]-1-propanesulfonic Acid] yielded a melting point of over 300 °C.
